Measurements taken from US8586565B2, “Kinase inhibitors useful for the treatment of myleoproliferative diseases and other proliferative diseases” (Deciphera Pharmaceuticals, LLC, priority 2006, dated 2013).

How the values were obtained:
[1] = target: T1, Abl kinase (Seq. ID no. 1) (Homo sapiens, UniProt P00519); experiment: Abl kinase (u-Abl) spectrophotometric coupled kinase assay; type: biochemical; details: for IC50: unphosphorylated-Abl kinase, 2 h preincubation, ATP 500 μM
T1 construct: His6 with TEV cleavage site ([…] leader) (N); purchased deCode Genetics
T1 sequence (P00519 with tags, fused parts or gaps): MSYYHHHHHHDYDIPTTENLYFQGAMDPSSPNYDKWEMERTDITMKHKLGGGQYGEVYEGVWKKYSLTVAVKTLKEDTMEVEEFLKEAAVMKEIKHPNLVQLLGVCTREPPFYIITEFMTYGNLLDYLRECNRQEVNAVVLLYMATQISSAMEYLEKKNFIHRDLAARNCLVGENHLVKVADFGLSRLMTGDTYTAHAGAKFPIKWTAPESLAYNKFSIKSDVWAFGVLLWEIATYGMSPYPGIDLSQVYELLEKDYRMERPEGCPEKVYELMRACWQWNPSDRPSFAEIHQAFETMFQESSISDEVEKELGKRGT
Description: Abl kinase (Seq. […] Activity of Abl kinase (Seq. […] Science (2000) 289, 1938-1942). In this assay, the oxidation of NADH (thus the decrease at A340 nm) was continuously monitored spectrophometrically. […] Test compounds were incubated with Abl kinase (Seq. […] The absorption at 340 nm was monitored continuously for 2 hours at 30° C. on Polarstar Optima plate reader (BMG). The reaction rate was calculated using the 1.0 to 2.0 h time frame. Percent inhibition was obtained by comparison of reaction rate with that of a control (i.e. with no test compound). IC50 values were calculated from a series of percent inhibition values determined at a range of inhibitor concentrations using software routines as implemented in the GraphPad Prism software package.

[2] = target: T2, pAbl kinase (Seq. ID no. 1) (Homo sapiens, UniProt P00519); experiment: pAbl kinase spectrophotometric coupled kinase assay; type: biochemical; details: for IC50: phosphorylated-Abl kinase, 2 h preincubation, ATP 500 μM, read-out: p-Abl IC50
T2 construct: His6 with TEV cleavage site ([…] leader) (N); purchased deCode Genetics
T2 sequence (P00519 with tags, fused parts or gaps): T1 sequence (P00519 with tags, fused parts or gaps)
Description: pAbl Kinase Assay Activity of pAbl kinase (Seq. […] Science (2000) 289, 1938-1942). In this assay, the oxidation of NADH (thus the decrease at […]) was continuously monitored spectrophometrically. […] Test compounds were incubated with pAbl (SEQ. […] The absorption at 340 nm was monitored continuously for 2 hours at 30° C. on Polarstar Optima plate reader (BMG). The reaction rate was calculated using the 1.0 to 2.0 h time frame. Percent inhibition was obtained by comparison of reaction rate with that of a control (i.e. with no test compound). IC50 values were calculated from a series of percent inhibition values determined at a range of inhibitor concentrations using software routines as implemented in the GraphPad Prism software package. pAbl was obtained as a phosphorylated form of the enzyme used in the Abl assay (see above).

[3] = target: T3, Abl(T315I) (Seq. ID no. 2) kinase (Homo sapiens, UniProt P00519, T315I); experiment: Abl(T315I) kinase spectrophotometric coupled kinase assay; type: biochemical; details: for IC50: T315I mutant Abl kinase, 2 h preincubation, ATP 500 μM
T3 construct: His6 with TEV cleavage site ([…] leader) (N); purchased decode Genetics
T3 sequence (P00519 with tags, fused parts or gaps T315I): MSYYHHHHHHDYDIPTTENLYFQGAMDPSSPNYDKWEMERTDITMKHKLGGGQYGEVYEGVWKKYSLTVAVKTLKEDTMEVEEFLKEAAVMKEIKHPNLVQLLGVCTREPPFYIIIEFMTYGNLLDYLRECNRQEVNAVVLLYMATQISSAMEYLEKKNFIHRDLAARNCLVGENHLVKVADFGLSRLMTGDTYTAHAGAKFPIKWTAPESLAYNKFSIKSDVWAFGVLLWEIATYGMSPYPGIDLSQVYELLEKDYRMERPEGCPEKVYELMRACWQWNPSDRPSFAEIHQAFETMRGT
Description: Science (2000) 289, 1938-1942). In this assay, the oxidation of NADH (thus the decrease at A340nm) was continuously monitored spectrophometrically. […] (SEQ. […] The absorption at 340 nm was monitored continuously for 2 hours at 30° C. on Polarstar Optima plate reader (BMG). The reaction rate was calculated using the 1.0 to 2.0 h time frame. Percent inhibition was obtained by comparison of reaction rate with that of a control (i.e. with no test compound). IC50 values were calculated from a series of percent inhibition values determined at a range of inhibitor concentrations using software routines as implemented in the GraphPad Prism software package.

[4] = tested on: BaF3 cells transfected with wild type bcr-Abl; experiment: Cell proliferation assay, BaF3 wt bcr-abl; type: cell-based; details: Mus musculus, 72 hours, Cell Titer Blue
Description: (§1) Briefly, cells were grown in RPMI 1640 supplemented with 10% characterized fetal bovine serum (HyClone, Logan, Utah) at 37 degrees Celsius, 5% CO2, 95% humidity. Cells were allowed to expand until reaching 80% saturation at which point they were subcultured or harvested for assay use.
(§2) A serial dilution of test compound was dispensed into a 96 well black clear bottom plate (Corning, Corning, N.Y.). For each cell line, three thousand cells were added per well in complete growth medium. Plates were incubated for 72 hours at 37 degrees Celsius, 5% CO2, 95% humidity. At the end of the incubation period Cell Titer Blue (Promega, Madison, Wis.) was added to each well and an additional 4.5 hour incubation at 37 degrees Celsius, 5% CO2, 95% humidity was performed. Plates were then read on a BMG Fluostar Optima (BMG, Durham, N.C.) using an excitation of 544 nm and an emission of 612 nm. Data was analyzed using Prism software (Graphpad, San Diego, Calif.) to calculate IC50's.

[5] = tested on: BaF3 cells transfected with bcr-Abl point mutant T315I; experiment: Cell proliferation assay, BaF3 T315I bcr-abl; type: cell-based; details: Mus musculus, 72 hours, Cell Titer Blue
Description: as §1, §2

[6] = tested on: BaF3 cells transfected with bcr-Abl point mutant Y253F; experiment: Cell proliferation assay, BaF3 Y253F bcr-abl; type: cell-based; details: Mus musculus, 72 hours, Cell Titer Blue
Description: as §1, §2

[7] = tested on: BaF3 cells transfected with bcr-Abl point mutant E255K; experiment: Cell proliferation assay, BaF3 E255K bcr-abl; type: cell-based; details: Mus musculus, 72 hours, Cell Titer Blue
Description: as §1, §2

[8] = tested on: BaF3 cells transfected with bcr-Abl point mutant M351T; experiment: Cell proliferation assay, BaF3 M351T bcr-abl; type: cell-based; details: Mus musculus, 72 hours, Cell Titer Blue
Description: as §1, §2

Row | SMILES | IC50 [1] [nM] | IC50 [2] [nM] | times more potent vs. p-Abl kinase than Compound A ([2]; relative to unsubstituted (R16=H) Compound A) [times] | IC50 [3] [nM] | IC50 [4] [nM] | IC50 [5] [nM] | IC50 [6] [nM] | IC50 [7] [nM] | IC50 [8] [nM] | times more potent vs. u-Abl kinase than Compound C ([1]; relative to unsubstituted (R16=H) Compound C) [times] | times more potent vs. p-Abl kinase than Compound C ([2]; relative to Compound C) [times] | times more potent vs. T315I mutant Abl kinase than Compound C ([3]; relative to Compound C) [times] | times more potent vs. u-Abl kinase than Compound B ([1]; relative to unsubstituted (R16=H) Compound B) [times] | times more potent vs. p-Abl kinase than Compound B ([2]; relative to Compound B) [times] | times more potent vs. T315I mutant Abl kinase than Compound B ([3]; relative to Compound B) [times]
1 | CNC(=O)c1cc(Oc2ccc(NC(=O)Nc3cc(C(C)(C)C)nn3-c3ccc4ncccc4c3)cc2C)ccn1 [Example 5, 1-(3-tert-butyl-1-(quinolin-6-yl)-1H-pyrazol-5-yl)-3-(3-methyl-4-(2-(methylcarbamoyl)pyridin-4-yloxy)phenyl)urea] | 0.7 | 6 | 4 | 250 | 8 | 25 | 15 | 62 | 10 | – | – | – | – | – | –
2 | CNC(=O)c1cc(Oc2ccc(NC(=O)Nc3cc(C(C)(C)C)nn3-c3ccc4[nH]ncc4c3)c(F)c2)ccn1 [Example 4, 1-(3-tert-butyl-1-(1H-indazol-5-yl)-1H-pyrazol-5-yl)-3-(2-fluoro-4-(2-(methylcarbamoyl)pyridin-4-yloxy)phenyl)urea] | 0.7 | 20 | – | 12 | – | – | – | – | – | 2.2 | 18 | 13 | – | – | –
3 | CC(C)c1cc(NC(=O)Nc2ccc(Oc3ccnc(C(N)=O)c3)cc2F)n(-c2ccc3ncccc3c2)n1 [Example 15, 1-(4-(2-carbamoylpyridin-4-yloxy)-2-fluorophenyl)-3-(3-isopropyl-1-(quinolin-6-yl)-1H-pyrazol-5-yl)urea] | 1 | 35 | – | 56 | 11 | 25 | 86 | 238 | 13 | – | – | – | 8 | > 14 | 18
